Test results as given in article PMC10034449, “FDA-approved Abl/EGFR/PDGFR kinase inhibitors show potent efficacy against pandemic and seasonal influenza A virus infections of human lung explants” (iScience, 2023).
“And” between values parts separate entries of the source, which are not always exact repeats. Equal values may be shown once.

Columns and labels:
[1] = system: NL11 viral polymerase activity; assay type: cell-based, influenza A virus
[2] = system: NL09 or NL11; assay type: cell-based, influenza A virus
[3] = system: A/Netherlands/602/09 (H1N1) replication complex (PB2, PB1, PA, NP); assay type: cell-based, influenza A virus
[4] = system: NL09 or NL11; assay type: cell-based, influenza A virus; remark: listed apart in the source
[5] = system: NL09 viral polymerase activity; assay type: cell-based, influenza A virus
[6] = system: NFkBpS536 (NFkB p65); assay type: cell-based, human
[7] = system: human precision-cut lung slices (hPCLS); experiment: Ex vivo cytotoxicity in hPCLS (LDH-Glo, LDH release); details: 10xmax: DF 50 μM, BO 50 μM, SA 1.25 μM, up to 144 h
[8] = system: A/NL/213/03 (H3N2) replication complex (PB2, PB1, PA, NP); assay type: cell-based, influenza A virus
[9] = system: PDGFRα vs PDGFRβ; design: method as in PMID 19922818; details: cited from earlier work
[10] = system: PAK3; details: 0.48 μM; cited from earlier work

Molecule	% Luminescence (relative to untreated / normalized to GFP) [1]	significance of titer reduction over the infection [2]	% Luminescence (relative to untreated / normalized to GFP) [3]	effect on viral entry / virion localization [4]	viral titer reduction [2]	further results
CC#CC(=O)N1CCC[C@H]1c1nc(-c2ccc(C(=O)Nc3ccccn3)cc2)c2c(N)nccn12 [AC, Acalabrutinib]	67%	only significant at 24 and 48 hpi	82%	No significant changes were detectable		
COc1cc(Nc2c(C#N)cnc3cc(OCCCN4CCN(C)CC4)c(OC)cc23)c(Cl)cc1Cl [BO, Bosutinib]		significant throughout the infections		no virus was detected		F-actin network [4]: not detectable
CNC(=O)c1ccc(Nc2ncc(C(F)(F)F)c(NCc3nccnc3N(C)S(C)(=O)=O)n2)cc1 [DF, Defactinib]		only significant at 24 and 48 hpi		significant retention at the membrane and cell periphery	at least 10 fold	reduction of polymerase reporter activity [1]: 13%; reduction of polymerase reporter activity [5]: 20%; NFkB p65 phosphorylation, pNFkB p65 / panNFkB p65 ratio (rel. to untreated) [6]: 64% and 68%; cytotoxicity (LDH release) relative to positive control [7]: > 20%
C=CC(=O)N1CCC[C@@H](n2nc(-c3ccc(Oc4ccccc4)cc3)c3c(N)ncnc32)C1 [IB, Ibrutinib]		significant throughout the infections		significant retention at the membrane and cell periphery	more than 1,000 fold	
Cc1cn(-c2cc(NC(=O)c3ccc(C)c(Nc4nccc(-c5cccnc5)n4)c3)cc(C(F)(F)F)c2)cn1 [NI, Nilotinib]	62% and 45%	significant throughout the infections	73% and 61%	No significant changes were detectable	more than 1,000 fold	% Luminescence (relative to untreated / normalized to GFP) [5]: 50%; % Luminescence (relative to untreated / normalized to GFP) [8]: 71% and 64%; selectivity for PDGFRα than PDGFRβ [9]: > 25 fold
CN1CCN(CCOc2cc(OC3CCOCC3)c3c(Nc4c(Cl)ccc5c4OCO5)ncnc3c2)CC1 [SA, Saracatinib]	53%		68%	No significant changes were detectable		% Luminescence (relative to untreated / normalized to GFP) [8]: 66%; cytotoxicity (LDH release) relative to positive control [7]: > 20%
CCN(CC)CCNC(=O)c1c(C)[nH]c(/C=C2\C(=O)Nc3ccc(F)cc32)c1C [sunitinib]						effect on PAK3 activity [10]: not even a 30-fold higher concentration (0.48 μM) has an effect
poly(IC)						induction of NFkBpS536 [6]: induced NFkBpS536
